Experimental data published in a compilation of properties of binary mixtures (doi:10.1021/acs.jced.9b00769).

Assay: xn = mol fraction of the nth substance listed
Details: 100 kPa

## CCCCCCCCCCCC[P+](CC)(CC)CC.N#Cc1ccc[n-]1 + OCCN(CCO)CCO
293.15 K, x1 = 0.003
  electrical conductivity: 0.0008 S/m
293.15 K, x1 = 0.005
  electrical conductivity: 0.0012 S/m
293.15 K, x1 = 0.007
  electrical conductivity: 0.0016 S/m
293.15 K, x1 = 0.008
  electrical conductivity: 0.0019 S/m
293.15 K, x1 = 0.013
  electrical conductivity: 0.0027 S/m
293.15 K, x1 = 0.017
  electrical conductivity: 0.0033 S/m
  viscosity: 920 mPa·s
293.15 K, x1 = 0.02
  electrical conductivity: 0.0036 S/m
293.15 K, x1 = 0.025
  electrical conductivity: 0.0038 S/m
293.15 K, x1 = 0.042
  electrical conductivity: 0.0051 S/m
293.15 K, x1 = 0.051
  electrical conductivity: 0.0053 S/m
  viscosity: 1009 mPa·s
293.15 K, x1 = 0.065
  electrical conductivity: 0.0056 S/m
293.15 K, x1 = 0.08
  electrical conductivity: 0.0058 S/m
293.15 K, x1 = 0.09
  electrical conductivity: 0.006 S/m
293.15 K, x1 = 0.091
  viscosity: 1032 mPa·s
293.15 K, x1 = 0.116
  electrical conductivity: 0.0062 S/m
293.15 K, x1 = 0.117
  viscosity: 1007 mPa·s
293.15 K, x1 = 0.145
  viscosity: 920 mPa·s
293.15 K, x1 = 0.28
  viscosity: 860 mPa·s
293.15 K, x1 = 0.285
  electrical conductivity: 0.0061 S/m
293.15 K, x1 = 0.404
  electrical conductivity: 0.0069 S/m
293.15 K, x1 = 0.512
  electrical conductivity: 0.0081 S/m
293.15 K, x1 = 0.687
  viscosity: 840 mPa·s
293.15 K, x1 = 0.701
  electrical conductivity: 0.0141 S/m
293.15 K, x1 = 0.809
  viscosity: 720 mPa·s
293.15 K, x1 = 1
  electrical conductivity: 0.0267 S/m
  viscosity: 423 mPa·s
298.15 K, x1 = 0.017
  viscosity: 608 mPa·s
298.15 K, x1 = 0.035
  viscosity: 641 mPa·s
298.15 K, x1 = 0.091
  viscosity: 680 mPa·s
298.15 K, x1 = 0.117
  viscosity: 649 mPa·s
298.15 K, x1 = 0.145
  viscosity: 610 mPa·s
298.15 K, x1 = 0.28
  viscosity: 573 mPa·s
298.15 K, x1 = 0.473
  viscosity: 583 mPa·s
298.15 K, x1 = 0.687
  viscosity: 576 mPa·s
298.15 K, x1 = 1
  viscosity: 310 mPa·s
303.15 K, x1 = 0.017
  viscosity: 396 mPa·s
303.15 K, x1 = 0.051
  viscosity: 418 mPa·s
303.15 K, x1 = 0.091
  viscosity: 435 mPa·s
303.15 K, x1 = 0.117
  viscosity: 423 mPa·s
303.15 K, x1 = 0.145
  viscosity: 403 mPa·s
303.15 K, x1 = 0.207
  viscosity: 389 mPa·s
303.15 K, x1 = 0.28
  viscosity: 379 mPa·s
303.15 K, x1 = 0.473
  viscosity: 395 mPa·s
303.15 K, x1 = 0.687
  viscosity: 395 mPa·s
303.15 K, x1 = 0.809
  viscosity: 353 mPa·s
303.15 K, x1 = 1
  viscosity: 214 mPa·s
313.15 K, x1 = 0.017
  viscosity: 181 mPa·s
313.15 K, x1 = 0.035
  viscosity: 194 mPa·s
313.15 K, x1 = 0.091
  viscosity: 198 mPa·s
313.15 K, x1 = 0.145
  viscosity: 192 mPa·s
313.15 K, x1 = 0.28
  viscosity: 183 mPa·s
313.15 K, x1 = 0.473
  viscosity: 194 mPa·s
313.15 K, x1 = 0.687
  viscosity: 199 mPa·s
313.15 K, x1 = 0.809
  viscosity: 184 mPa·s
313.15 K, x1 = 1
  viscosity: 114 mPa·s

## OCCN(CCO)CCO + CCCC[P+](CC)(CC)CC.N#Cc1ccc[n-]1
293.15 K, x2 = 0
  viscosity: 940 mPa·s
298.15 K, x2 = 0
  viscosity: 611 mPa·s
303.15 K, x2 = 0
  viscosity: 413 mPa·s
313.15 K, x2 = 0
  viscosity: 204 mPa·s

## OCCN(CCO)CCO + CCCCCCCCCCCC[P+](CC)(CC)CC.N#Cc1ccc[n-]1
293.15 K, x2 = 0
  viscosity: 940 mPa·s
298.15 K, x2 = 0
  viscosity: 611 mPa·s
303.15 K, x2 = 0
  viscosity: 413 mPa·s
313.15 K, x2 = 0
  viscosity: 204 mPa·s
